Reference: ChEMBL document CHEMBL5233205, “VISTA inhibitors in cancer immunotherapy: a short perspective on recent progresses” (RSC Med Chem, 2021)
Positions of bridges follow the written chain, without caps; N, C: chain ends. Non-standard residues stand in square brackets, D forms with d. Residues, ends and D or L forms follow the SMILES beside them. *: point of attachment. X1 = N[C@@H](CO)C(=O)N[C@@H](Cc1ccccc1)C(=O)NCCCCN*; NMeT = CN[C@H](C(=O)O)[C@@H](C)O

Assays:
[1] = test system: Splenocyte; experiment: Cytoprotective activity against anti-CD3/CD28 stimulated mouse splenocyte assessed as rescue of cell proliferation at 100 nM incubated for 72 hrs by CFSE staining based flow cytometric analysis; assay type: functional
[2] = target: T1, V-type immunoglobulin domain-containing suppressor of T-cell activation (Homo sapiens, UniProt Q9H7M9); experiment: Binding affinity to recombinant human His-tagged VISTA ECD incubated for 2 hrs by TR-FRET assay
T1 sequence (Q9H7M9 whole entry): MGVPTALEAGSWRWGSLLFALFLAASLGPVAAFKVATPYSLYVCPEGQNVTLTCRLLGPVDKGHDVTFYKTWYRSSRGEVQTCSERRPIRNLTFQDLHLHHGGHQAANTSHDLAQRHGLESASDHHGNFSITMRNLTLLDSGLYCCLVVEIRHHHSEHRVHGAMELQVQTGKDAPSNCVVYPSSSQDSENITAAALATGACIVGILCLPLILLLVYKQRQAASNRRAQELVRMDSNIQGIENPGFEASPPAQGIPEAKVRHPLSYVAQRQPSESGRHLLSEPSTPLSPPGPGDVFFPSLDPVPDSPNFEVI

[3] = target: T1, V-type immunoglobulin domain-containing suppressor of T-cell activation; experiment: Binding affinity to recombinant human VISTA ECD incubated for 2 hrs by ELISA assay
[4] = target: T1, V-type immunoglobulin domain-containing suppressor of T-cell activation; experiment: Inhibition of VISTA (unknown origin) incubated for 15 mins by LANCE Ultra TR-FRET assay
[5] = test system: Splenocyte; experiment: Cytoprotective activity against anti-CD3/CD28 stimulated mouse splenocyte assessed as rescue of PD-L1 stimulated inhibition of proliferation at 100 nM incubated for 72 hrs by CFSE staining based flow cytometric analysis; parameters: scale not given: the % may be the effect or the level left
[6] = target: Programmed cell death 1 ligand 1 (Homo sapiens, UniProt Q9NZQ7); experiment: Inhibition of His-tagged human recombinant PD-L1 incubated for 15 mins by LANCE Ultra TR-FRET assay
[7] = test system: Splenocyte; experiment: Cytoprotective activity against anti-CD3/CD28 stimulated mouse splenocyte co-cultured with MDA-MB-231 cells overexpressing PD-L1 assessed as rescue of cell proliferation at 100 nM incubated for 72 hrs by CFSE staining based flow cytometric analysis relative to control; assay type: functional
[8] = Half life in mouse liver microsomes at 1 uM by LC-MS/MS analysis; assay type: ADME, Microsome
[9] = test system: B16-F10; experiment: Antimetastatic activity against mouse B16-F10 cells implanted in C57BL/6 mouse assessed as decrease in lung metastasis at 5 mg/kg,sc and measured after 14 days; assay type: functional; parameters: scale not given: the % may be the effect or the level left; details: time 14 day

Sequence of Programmed cell death 1 ligand 1 (Q9NZQ7 whole entry): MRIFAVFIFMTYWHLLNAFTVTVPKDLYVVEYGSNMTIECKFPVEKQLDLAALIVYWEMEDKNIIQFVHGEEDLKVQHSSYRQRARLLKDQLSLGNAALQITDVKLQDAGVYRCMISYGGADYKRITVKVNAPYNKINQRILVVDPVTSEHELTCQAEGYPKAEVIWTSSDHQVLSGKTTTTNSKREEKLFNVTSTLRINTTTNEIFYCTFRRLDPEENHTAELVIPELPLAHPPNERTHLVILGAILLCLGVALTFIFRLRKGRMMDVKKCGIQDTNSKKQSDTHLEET

NCCCC[C@H](NC(=O)N[C@@H](CC(N)=O)C(=O)NNC(=O)[C@@H](N)CO)C(=O)O
Activity [1]: 87%

CN(C)c1n/c(=N\Cc2ccco2)ss1
IC50 [2]: 4.8 µM | IC50 [3]: 9.7 µM

C[C@H](O)[C@H](NC(=O)N[C@@H](CC(N)=O)c1nc([C@@H](N)CO)no1)C(=O)O
EC50 [4]: 82.9 nM | Activity [5]: >70% | EC50 [6]: 66.1 nM | Activity [7]: 89% | Activity [1]: 97%

CC[C@H](C)[C@H](NC(=O)[C@H](CCC(N)=O)NC(=O)[C@H](C)NC(=O)[C@H](CCCCN)NC(=O)[C@@H]1CCCN1C(=O)[C@H](C)NC(=O)[C@H](CC(C)C)NC(=O)[C@H](CCC(N)=O)NC(=O)[C@@H](NC(=O)[C@@H](NC(=O)[C@H](CCCNC(=N)N)NC(=O)[C@H](Cc1ccccc1)NC(=O)[C@H](CCCCN[C@@H](Cc1ccccc1)C(=O)N[C@@H](CO)C(=O)N[C@@H](CCC(=O)O)C(=O)N[C@@H](CO)C(=O)N[C@H](C(=O)N[C@@H](CC(N)=O)C(=O)N[C@@H](CO)C(=O)O)[C@@H](C)O)NC(=O)[C@H](Cc1ccccc1)NC(=O)[C@H](CO)NC(=O)[C@H](CCC(=O)O)NC(=O)[C@H](CO)NC(=O)[C@@H](NC(=O)[C@H](CC(N)=O)NC(=O)[C@@H](N)CO)[C@@H](C)O)C(C)C)[C@@H](C)O)C(=O)N[C@@H](CCCCN)C(=O)N[C@@H](CCC(=O)O)C(=O)O
half-life at 1 µM [8]: > 90 min

C[C@H](O)[C@@H]1NC(=O)N[C@@H](CC(N)=O)C(=O)NNC(=O)[C@H](CO)NC(=O)COCCOCCNC1=O
Activity [1]: 87%

C[C@H](O)[C@H](NC(=O)N[C@@H](CC(N)=O)c1nc([C@@H](N)CCCCN)no1)C(=O)O
Activity [5]: 96% | Activity [1]: 50%

CCCNC(=O)CC[C@H](NC(=O)N[C@H](C(=O)O)[C@H](C)O)c1nc([C@@H](N)CO)no1
Activity [5]: 119% | Activity [1]: <50%

C[C@H](O)[C@H](NC(=O)N[C@@H](CC(N)=O)c1nc(C2(N)CCCCC2)no1)C(=O)O
Activity [1]: 86%

C[C@@H](O)[C@H]1C(=O)N[C@@H](CO)C(=O)N[C@H](C(=O)N[C@@H](CO)C(=O)N[C@@H](Cc2ccccc2)C(N)=O)CCCCNC(=O)CC[C@H](NC(=O)[C@@H](N)CO)C(=O)N1C (H-SE[NMeT]SKSF-NH2; lactam 2-5)
Activity [1]: 82%

C[C@@H](O)[C@@H]1NC(=O)[C@@H](NC(=O)[C@@H](N)CO)CCCCNC(=O)CC[C@@H](C(=O)N[C@@H](CO)C(=O)N[C@@H](Cc2ccccc2)C(N)=O)NC(=O)[C@H](CO)NC1=O (H-SKTSESF-NH2; lactam 2-5)
Activity [7]: 60%

C[C@@H](O)[C@H](NC(=O)[C@H](CCC(N)=O)NC(=O)[C@@H](N)CO)C(=O)N[C@@H](CO)C(=O)N[C@@H](CCC(=O)NCCCCNC(=O)[C@H](Cc1ccccc1)NC(=O)[C@@H](N)CO)C(N)=O (H-SQTSE(X1)-NH2)
Activity [9]: 64%
